# From patent US20090252802A1, “Compositions Including Relatively Water Insoluble/Unwettable Drugs And Methods For Using Same” (priority 2006, published 2009)
# What was measured:
# [1] = Contact angles by tilting plane method (sessile drop on tilted surface); type: physicochemical; details: sessile drop of water or buffered aqueous medium (50 mM sodium phosphate, pH 6.8) on tilted surface of the substance
# Text: The tilting plane method of measuring contact angles involves slowly tilting a surface or plane of a substance the contact angle of which is to be determined until a sessile drop on the plane begins to move in the downhill direction. At that time the angle between the plane and the downhill tangent of the drop at the plane is the advancing contact angle, and the angle between the plane and the uphill tangent of the drop at the plane is the receding contact angle. A procedure for determining the contact angles of a therapeutic component is as follows. A small batch of Compound III weighing approximately 30 g is micronized in a ball mill for three days using 5-mm stainless steel balls. The resulting particles have an average diameter of 8 μm. A 200-mg sample of the micronized Compound III is compressed into a wafer 12 mm in diameter and 2 mm thick using a Carver press. The wafer is then glued on to a plastic board. Separately, a 10 milliliter aqueous solution is prepared containing 50 mM sodium phosphate buffer at pH 6.8. A drop of a blue food dye is added to the solution to aid visualization. A 40 μL drop of the blue aqueous solution is placed on top of the Compound III wafer on a plastic board resting at a horizontal position. The plastic board and the wafer are then slowly tilted from their horizontal position in front of a continuous shooting camera. The process stops after the blue aqueous drop has run down the wafer. The images that show the shapes of the liquid drop just prior to it starting to run down the wafer are analyzed and the contact angles measured. Alternatively, both the advancing and receding contact angles can be measured using a KSV instrument (model CAM 200) with a tilt stage. The instrument is fully computer controlled, and it captures the video image and performs full analysis of the advancing and receding contact angles.
# [2] = Solubility in water at 25° C.; type: physicochemical; details: for solubility: water; for solubility in water: unit given as mg
# [3] = Dissolution in aqueous solution buffered to pH 6.8 over time (FIG. 1, FIG. 2); type: physicochemical; details: 100 mg sample with excipients in buffer pH 6.8, FIG. 1 curves
# Method: Samples A and B are in the form of particles having an average diameter of about 150 microns. Samples C and D are in the form of particles having an average diameter of about 10 microns.
# An aqueous solution buffered with a buffer to a pH of 6.8 is provided. A quantity of a mixture containing conventional pharmaceutically acceptable excipients is provided. In addition, a quantity of sodium dodecyl sulfate is provided.
# A mixture of Sample A (100 mg) and excipients is formed and is placed in 900 ml of the aqueous solution.
# A mixture of Sample C (100 mg) and excipients is formed and is placed in another 900 ml of the aqueous solution. Test samples of each of the aqueous solutions are taken at various times after each of the mixtures containing Compound III (Samples A and C) is placed in the aqueous solution. Each of these test samples is analyzed for Compound III concentration. Using these test results over a period of 240 minutes, relationships between the percentage of Sample A and Sample C dissolved and time are developed. These tests are run a total of 3 times (n=3).
# Each of Samples B and D is tested in a substantially similar way. However, when testing Samples B and […], 1% based on weight of the mixture of Sample and excipient mixture, of sodium dodecyl sulfate is included in the mixture. Each of these tests is run a total of 3 times. […]
# [4] = at doses 10-fold greater than the dose required to produce a 50% reduction in one or more symptoms; cited from earlier work
Structure (SMILES),advancing contact angle [1],receding contact angle [1],solubility [2] [µg/mL],rate of dissolution (comparison in words) [3],solubility in water [2],sedation [4]
S=c1[nH]cc(CC2CC=CC2)[nH]1 [Compound III],116 °,73 °,< 500,relatively reduced rate of dissolution in water,,
O=c1[nH]cc(CC2Cc3ccc(F)cc3C2)[nH]1 (centres unmarked) [Compound II],greater than 90 °,greater than 45 °,,,less than 0.5 mg,
Cc1cccc([C@@H](C)c2c[nH]c(=S)[nH]2)c1C [Compound IV],greater than 90 °,greater than 45 °,,,less than 0.5 mg,
O=C1c2ccccc2CCC1Cc1c[nH]c(=S)[nH]1 (centres unmarked) [Compound I],greater than 90 °,greater than 45 °,< 500,,,
Cc1cccc([C@H](C)c2c[nH]cn2)c1C [dexmeditomidine],,,,,,completely sedating
